From US20240216289A1, “LIPIDOID NANOPARTICLES FOR THE TREATMENT OF DISEASES AND DISORDERS” (Trustees of Tufts College, priority 2021, published 2024)
“Also recorded” adds a separate entry of the source.

Tests used:
liver [1] = test: Luc mRNA expression in liver after subcutaneous tail-base injection of LNP/mLuc (IVIS); type: in vivo, Balb/c mice; conditions: subcutaneous at tail base, 6 h, bioluminescence
[2] = system: macrophages and dendritic cells (DCs) in inguinal lymph nodes; test: Delivery of Cre mRNA to LNs in Ai14 reporter mice (tdTomato positive cells, flow cytometry); type: in vivo; conditions: LNP/Cre mRNA s.c., 48 h; result in words
OVA = test: ELISA for antibody titer after OVA mRNA vaccination; type: in vivo; conditions: 14 days after second dose
inguinal lymph nodes = test: Luc mRNA expression in inguinal lymph nodes after subcutaneous tail-base injection of LNP/mLuc (IVIS); type: in vivo, Balb/c mice; conditions: subcutaneous at tail base, 6 h, bioluminescence
liver [3] = test: Mouse liver-directed 3′UTR and cap screening in mRNA format (L88 LNP, IVIS); type: in vivo, BALB/c mice; conditions: Lipid 88 delivery, 0.2 mg/kg IV
Experimental: Mouse liver-directed 3′UTR screening in mRNA format. 6-week-old female BALB/c mice were used for in vivo modified Fluc-eGFP mRNA screening with L88 LNP delivery. Each UTRs modified Fluc-eGFP mRNA were encapsulated in an optimal Lipid 88 formulation (L88:Chol:DOPC:DMG-PEG=16:4:2:1, w w) at the weight ratio of 1:10 in PBS solution (RNase-free). The L88/Fluc-eGFP mRNA complex was intravenously injected into the mice at a mRNA dose of 0.2 mg/kg. At each preset time point, mice were injected with 100 μL of D-Luciferin potassium salt (GoldBio) solution (15 mg/mL in PBS), anesthetized under isoflurane anesthesia, and evaluated using IVIS imaging system (Caliper Life Sciences, US).

HEK293T cells = test: 5′UTR and 3′UTR optimization in HEK293T cells (eGFP, flow cytometry); type: cell-based; conditions: LPF2k
Experimental: 5′UTR optimization in HEK293T cells. Prior to transfection, HEK293T cells were seeded on a 48-well plate at 40,000 cells/well, with 500 μL DMEM culture in each well. 6 groups were set with different treatments: Lipofectamine 2000 (LPF2k) only, pcDNA3.0-eGFP, pcDNA3.0-NCA7d-eGFP, pcDNA-70nt-eGFP, pcDNA3.0-Ces1d-eGFP and pcDNA3.0-S27a45′-eGFP. LPF2k was complexed each plasmid in equal amount (0.5 μg/0.5 μg) before being added to each well. At each time point (36 hrs, 60 hrs, 84 hrs and 108 hrs), cells were washed with PBS and then treated with 500 μL 0.25% Typsine-EDTA 10 (Gibco) for 3 min. Resuspended cells were applied to the Attune NxT Flow Cytometer (Thermo Fisher) directly (FIG. 10).
3′UTR optimization in HEK293T cell. Similar to 5′UTR optimization, thirteen 3′UTRs modified pcDNA3.0-Ces1d-eGFP and pcDNA3.0-70nt-eGFP were encapsulated in LPF2k at a 1:1 weight ratio and then transfected into HEK293T cells. At each time point (48 hrs, 72 hrs, 96 hrs and 120 hrs), cells were washed with PBS and then treated with 500 μL 0.25% Typsine-EDTA (Gibco) for 3 min. Resuspended cell were applied to the Attune NxT Flow Cytometer (Thermo Fisher) directly (FIG. 11).

[4] = system: IFN γ and IL-4 positive T cells; test: IFN γ and IL-4 ELISpot after S protein mRNA vaccination; type: in vivo, mice; conditions: spleen day 28
Experimental: The blood and spleen were collected at day 28 for further analysis.
The T cell response after the vaccination was analyzed by IFN γ and IL-4 ELISpot (FIGS. 5A-C).
The T cell response after vaccination was tested by ELISpot assay.

CCCCCCCCC(CCCCCC)C(=O)OCCCCCCN(CCCCO)CCCCCCOC(=O)C(CCCCCC)CCCCCCCC (stereo not shown) [ALC-0315]
Luc mRNA expression in liver (liver [1]): significantly increased expression of Luc in liver; also recorded: significantly higher expression in liver | transfection of cells in inguinal lymph nodes [2]: less efficacy compared with 113-F2 LNP; also recorded: successfully delivered Cre mRNA to antigen-presenting cells (APC) | antibody response (total IgG, IgG1, IgG2c) (OVA): peak antibody level | Luc mRNA expression in inguinal (draining) lymph nodes (inguinal lymph nodes): obvious signal in draining LNs

Apolipoprotein A-II
ARCA capped 70nt-Fluc-eGFP mRNA Fluc expression in the liver (liver [3]): highest Fluc expression in the liver relative to other eight 3′UTR modifications | eGFP expression, 3′UTR in pcDNA3.0-70nt-eGFP (HEK293T cells; 48-120 hrs): top-performing 3′UTR candidates

Pam3CSK4
transfection of cells in inguinal lymph nodes [2]: decreased the transfection efficacy | Luc mRNA expression in inguinal (draining) lymph nodes (inguinal lymph nodes): decreased the mRNA expression in draining lymph nodes | IL-4 positive T cells (ELISpot) [4]: increased the Th1 T cell response and percentage of IL-4 secreting T cells; also recorded: significantly induced IL-4 secreting T cells compared with all other groups

B1: Ces1d: 5′UTR fragment, sequence in Table 1 (nucleic acid)
DNA: CCACTAGTTCTAGAGGTACCTTGGACCCTCGTACAGAAGCTAATACGACTCACTATAAGGAGGCGGGTCCCCTGGTCCACAACAGAAGCATTGCTAAAGCAGCAGATAGCTCAGAGACCCACAGAGCCCTTGTCCTTCCACAGAATTCGCCACCATGGAAGA
eGFP expression, 5′UTR in pcDNA3.0-eGFP (HEK293T cells; 36-108 hrs): top-performing 5′UTR candidates
